Where two headings read alike, the source gives them in different places. Blank lines part the entries; values can stand above or below the compound they belong to.
What was measured:
[1] = cited from earlier work
[2] = Pharmacokinetic study: plasma CCK-8 levels after one oral enteric-coated capsule (Example 3); type: in vivo, human
Description: Secondarily, it was desired to ascertain the time it would take to reach peak plasma levels. Each individual ingested the capsule in the fasting state (not having eaten for at least 8 hours). Blood was then drawn every 10 minutes for one hour. […] Plasma was drawn off from each tube and frozen. The frozen plasma was sent to Mt. Sinai Hospital in Canada for measurement of CCK-8 levels.

[3] = tested on: pancreatic amylase secretion; details: Crawley and Corwin; cited from earlier work
[4] = in vivo; cited from earlier work
CCKA receptors = molecular target: T1, CCKA receptors (Homo sapiens, UniProt P32238); details: de Montigny 1989; cited from earlier work
T1 sequence (P32238 1-428): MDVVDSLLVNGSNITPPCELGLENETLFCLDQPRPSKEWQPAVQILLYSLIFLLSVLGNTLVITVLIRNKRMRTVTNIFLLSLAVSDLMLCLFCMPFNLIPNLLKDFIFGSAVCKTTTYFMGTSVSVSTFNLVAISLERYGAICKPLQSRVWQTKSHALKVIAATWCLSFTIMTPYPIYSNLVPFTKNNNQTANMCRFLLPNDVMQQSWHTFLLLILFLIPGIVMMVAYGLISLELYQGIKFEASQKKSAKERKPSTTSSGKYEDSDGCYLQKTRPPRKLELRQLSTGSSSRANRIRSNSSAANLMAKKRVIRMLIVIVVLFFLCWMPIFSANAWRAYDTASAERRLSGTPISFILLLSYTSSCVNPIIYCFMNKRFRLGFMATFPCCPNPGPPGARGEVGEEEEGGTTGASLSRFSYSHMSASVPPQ

Compound: O[C@H](CS)[C@H](O)CS (racemic) [dithiothreitol]
increase in absorption and biliary recovery of a tripeptide over control rats ([1]; ileum): four-fold | increase in absorption and biliary recovery of a tripeptide over control rats ([1]; proximal colon): 70 fold

CCK-8 level (plasma) ([2]; Individual #1, 10 minutes post-ingestion, one enteric-coated capsule with 9.2 micrograms CCK-8 and an enzyme inhibitor, fasting): 3.268 picomoles/liter (pm/L) | CCK-8 level (plasma) ([2]; Individual #1, remaining 5 measurements (every 10 minutes up to one hour), 9.2 micrograms capsule with enzyme inhibitor): detected no CCK-8 | CCK-8 level (plasma) ([2]; Individual #2, 10 minutes post-ingestion, 9.2 micrograms capsule with enzyme inhibitor, fasting): 0.7625 pm/L | CCK-8 level (plasma) ([2]; Individual #2, 20 minutes, 9.2 micrograms capsule with enzyme inhibitor, fasting): 3.326 pm/L | CCK-8 level (plasma) ([2]; Individual #2, next 4 measurements (30-60 minutes)): detected no CCK-8 | CCK-8 level (plasma) ([2]; Individual #3 (BMI 24), 10 minutes post-ingestion, 9.2 micrograms capsule with enzyme inhibitor, fasting): 0.0 pm/L | CCK-8 level (plasma) ([2]; Individual #3 (BMI 24), 20 minutes, 9.2 micrograms capsule with enzyme inhibitor, fasting): 4.375 pm/L | CCK-8 level (plasma) ([2]; Individual #3, next 4 measurements (30-60 minutes)): detected no CCK-8
Compound: Asp-Tyr(SO3H)-Met-Gly-Trp-Met-Asp-Phe-NH2 [CCK-8]
more potent than unsulfated CCK-8 or CCK-4 in stimulating pancreatic amylase secretion [3]: approximately 1000 fold | oral bio-availability [4]: less than 1%

Compound: CCK-4: the tetrapeptide, CCK-4 (CCK30-33)
lower affinity for CCKA receptors than the sulfated form of CCK-8 (CCKA receptors): 10,000 fold
